Measurements taken from US20190203253A1, “METHODS OF IDENTIFYING AND TREATING CANCER PATIENTS WITH AN EPHB6 DEFICIENCY” (University of Saskatchewan, priority 2016, published 2019).
“Also recorded” adds a separate entry of the source.

Columns and labels:
[1] = test system: MDA-pc3 and MDA-B6 TNBC tumors; assay: Tumor xenograft study, tumor growth; type: in vivo, NOD-SCID mice; conditions: 5 mg/kg orally twice a day, MDA-pc3 vs MDA-B6 xenografts (FIG. 7A)
Experimental: FIG. 7. Analysis of the SL interaction between EPHB6 and SRC in TNBC cells and murine xenografts. A. MDA-pc3 and MDA-B6 cells were injected into the mammary fat pad region of 4-6 weeks old NOD-SCID mice (1×10^6 cells per mouse). Mice with detectable tumors were treated twice per day with 5 mg/kg KX2-391 in DMSO/water solvent or solvent alone by oral feeding (at least 6 animals per each experimental condition). Tumor size was measured every 3 days and tumor volume was calculated with the equation: A/2*B^2, where A was long and B was short diameter of the tumor. The reduction in tumor growth in KX2-391-treated mice is presented as a percentage relative to matching solvent controls. The graph summarizes two independent experiments. […] Four representative fields (at 3, 6, 9, and 12 o'clock) per each stained tumor section (one for each extracted tumor) were imaged at 100× magnification and the blood vessel density per each field was analyzed with the Image-Pro Premier software. […]
Breeder pairs of NOD SCID gamma mice were purchased from The Jackson Laboratory and a colony was established at the Laboratory Animal Services Unit, University of Saskatchewan. […] Digital caliper measurements were taken every 3 days and tumor volume was calculated by the formula A/2*B^2 (where A and B were the long and short diameters of the tumor respectively). […]

MDA-pc3 and MDA-B6 cells = assay: Cell death assays (propidium iodide and 7-AAD staining); type: cell-based, human; conditions: MDA-pc3 vs MDA-B6, 25 nM, 72 h (FIGS. 5A, 5B)
Experimental: FIG. 5. Inhibition of SRC induces cell death more efficiently in EPHB6-deficient cells. A. MDA-pc3, and MDA-B6 cells were cultured in glass-bottom plates in the presence of 25 nM KX2-391 or DMSO for 72 h and stained with 2.7 μg/mL propidium iodide (PI) in phenol red-free medium. Stained cells were imaged at 200× magnification using Zeiss LSM 700 confocal microscope and PI-stained cells were counted in at least 10 randomly captured frames. Counts of PI-positive cells were normalized on the total cell numbers in matching frames. […] B. MDA-pc3 and MDA-B6 cells were cultured in 6-well plates in the presence of 25 nM KX2-391 or a matching volume of DMSO for 72 h. Cells were collected and stained for 7-AAD for 15 minutes at room temperature. Cells were analyzed by flow cytometry and the FlowJo software. […] All experiments were performed at least three times. Scale bar, 100 μm. *, P<0.05, Student's t-test.
For propidium iodide (PI) staining, MDA-MB-231 and BT-20 cells were incubated in glass-bottom plates (MatTek, Ashland, Mass., USA) for 72 h and 96 h, respectively, with KX2-391 and matching volumes of DMSO. […] The amount of PI-stained cells was analyzed by microscopy using a Zeiss Observer Z1 at 200× magnification. […] PI-stained cells were counted in at least 10 randomly captured frames, normalized on the total number of cells in matching frames and compared between DMSO controls and treated cells. […]

O=C(Cc1ccc(-c2ccc(OCCN3CCOCC3)cc2)cn1)NCc1ccccc1 [KX2-391]
suppression of tumor growth, EPHB6-deficient vs EPHB6-expressing tumors [1]: more efficiently suppresses growth of EPHB6-deficient TNBC tumors; also recorded: significantly more effective in suppressing EPHB6-deficient TNBC tumors
induction of cell death (Propidium Iodide or 7-AAD staining) (MDA-pc3 and MDA-B6 cells): more efficient in inducing cell death, when the EPHB6 receptor is not expressed
